These results are taken from patent US20240140895A1, “NOVEL AROMATIC MOLECULES” (XENIOPRO GmbH, priority 2018, published 2024).

This assay relates to Notch signaling (human Notch1 receptor, hNotch1ΔE). The assay is described as follows: Notch reporter assay (dual luciferase, HeLa cells transfected with hNotch1ΔE). In kind it is cell-based. The following applies: 10 μM. An excerpt:
The activation level of Notch signaling can be quantified in vitro reliably by measuring the expression levels of Notch specific target genes. This can be accomplished by the quantification of corresponding mRNA or protein of a particular Notch target gene. Alternatively, cells can be genetically modified to carry a luciferase gene as an artificial Notch target gene, which is expressed in dependence of Notch activity. In this setting, Notch signaling levels can be quantified by measuring the luciferase-derived bioluminescence values.
An according Notch-reporter assay, i.e. a luciferase-based luminescence readout, was used here to quantify the ability of the claimed compounds to augment Notch signaling in a cellular system. […] After 24 hours of transfection, the transfected cells were carefully detached from the dish using 0.5 mM EDTA in PBS and seeded into 96-well plates suitable for luminescence readouts (CORNING, #3610) at 10,000 cells per well. […] Directly after the lysis, first the Firefly and then the Renilla luciferase values were measured consecutively from the same well with a luminescence reader immediately after applying 15 μL per well each of the corresponding enzyme substrates needed to create the luminescence signals (Promega, Dual-Luciferase® Reporter Assay System, #E1910). […]
Background: Reporter assays use an easily measured gene product as a stand-in for the process of interest.

As to `Oc1ccc(C=Cc2cc(O)cc(O)c2)cc1` [RES, resveratrol, reference compound], the “Activity Range: weighted arithmetic mean (AVEw) of double-normalized Notch-reporter luminescence, relative to DMSO basis level 1.0” value was 1.9 ± 0.5.
